Reference: ChEMBL document CHEMBL1201862, “PubChem BioAssay data set” (2004)
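Grown in 96-well plates, cells were treated for 48 hours with each compound at five concentrations. Insufficient inhibition: endpoint recorded as highest concentration tested. Abbreviation: GI50, concentration required for 50% inhibition of growth.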 The source made the active and inactive calls. No stated cut-off is given here; in the data, active = GI50 up to about 1.1 µM and inactive = higher.

Legend:
Experiment in all cases: inhibition of tumour cell growth, NCI panel, 48 h
[1] = test system: ACHN
[2] = test system: CAKI-1
[3] = test system: HCC 2998
[4] = test system: HCT-116
[5] = test system: KM12
[6] = test system: MCF7
[7] = test system: MOLT-4
[8] = test system: NCI-H226
[9] = test system: NCI-H23
[10] = test system: NCI-H460
[11] = test system: NCI/ADR-RES
[12] = test system: OVCAR-3
[13] = test system: RPMI-8226
[14] = test system: SF-268
[15] = test system: SK-MEL-2
[16] = test system: SK-OV-3
[17] = test system: SNB-19
[18] = test system: SR
[19] = test system: SW-620
[20] = test system: U-251

Structure (SMILES)	GI50 [1]	GI50 [2]	GI50 [3]	GI50 [4]	GI50 [5]	GI50 [6]	GI50 [7]	GI50 [8]	GI50 [9]	GI50 [10]	GI50 [11]	GI50 [12]	GI50 [13]	GI50 [14]	GI50 [15]	GI50 [16]	GI50 [17]	GI50 [18]	GI50 [19]	GI50 [20]
COc1cc([C@@H]2c3cc4c(cc3[C@@H](Nc3ccc(Cl)cc3C(=O)c3ccccc3Cl)[C@H]3COC(=O)[C@H]23)OCO4)cc(OC)c1OC	0.125 µM (active)	0.152 µM (active)	0.373 µM (active)	0.0738 µM (active)	0.091 µM (active)	0.111 µM (active)	0.142 µM (active)	0.0294 µM (active)	0.166 µM (active)	0.146 µM (active)	0.173 µM (active)	0.332 µM (active)	0.173 µM (active)	0.189 µM (active)	0.953 µM (active)	1.19 µM (inactive)	0.174 µM (active)	0.0713 µM (active)	0.122 µM (active)	0.0998 µM (active)
C/C(CC(O)(C(F)(F)F)C(F)(F)F)=N/Nc1ccc([N+](=O)[O-])cc1[N+](=O)[O-]	2.56 µM (inactive)	2.24 µM (inactive)	3.6 µM (inactive)	1.75 µM (inactive)	3.21 µM (inactive)	2.97 µM (inactive)	4.4 µM (inactive)	2.06 µM (inactive)	2.46 µM (inactive)	3.11 µM (inactive)	2.85 µM (inactive)	1.96 µM (inactive)	1.56 µM (inactive)	2.81 µM (inactive)	2.28 µM (inactive)	2.33 µM (inactive)	3.27 µM (inactive)	4.9 µM (inactive)	3.44 µM (inactive)	2.67 µM (inactive)
CC(=O)N(C)SCC(NC(=O)C(Cc1ccccc1)NC(=O)OCc1ccccc1)C(=O)NC(Cc1ccccc1)C(=O)NC(Cc1cn(C=O)c2ccccc12)C(=O)NC(CCCCNC(=O)OCc1ccccc1)C(=O)NC(C(=O)NC(CSN(C)C(C)=O)C(=O)NO)C(C)OCc1ccccc1 (stereo not given)	> 100 µM (inactive)	–	> 100 µM (inactive)	> 100 µM (inactive)	> 100 µM (inactive)	> 100 µM (inactive)	> 100 µM (inactive)	> 100 µM (inactive)	> 100 µM (inactive)	> 100 µM (inactive)	> 100 µM (inactive)	> 100 µM (inactive)	> 100 µM (inactive)	> 100 µM (inactive)	> 100 µM (inactive)	> 100 µM (inactive)	> 100 µM (inactive)	> 100 µM (inactive)	> 100 µM (inactive)	> 100 µM (inactive)
O=c1cnn(C/C=C\CO)c(=O)[nH]1	> 100 µM (inactive)	> 100 µM (inactive)	> 100 µM (inactive)	–	> 100 µM (inactive)	> 100 µM (inactive)	–	> 100 µM (inactive)	> 100 µM (inactive)	> 100 µM (inactive)	> 100 µM (inactive)	> 100 µM (inactive)	> 100 µM (inactive)	> 100 µM (inactive)	> 100 µM (inactive)	–	> 100 µM (inactive)	> 100 µM (inactive)	> 100 µM (inactive)	> 100 µM (inactive)
C[C@]12CC[C@H](OC(=O)Cc3ccc(N(CCCl)CCCl)cc3)CC1=CC[C@@H]1[C@@H]2CC[C@]2(C)C(=O)CC[C@@H]12	> 100 µM (inactive)	> 100 µM (inactive)	> 100 µM (inactive)	–	> 100 µM (inactive)	> 100 µM (inactive)	> 100 µM (inactive)	> 100 µM (inactive)	> 100 µM (inactive)	> 100 µM (inactive)	> 100 µM (inactive)	> 100 µM (inactive)	> 100 µM (inactive)	> 100 µM (inactive)	> 100 µM (inactive)	–	> 100 µM (inactive)	3.61 µM (inactive)	> 100 µM (inactive)	> 100 µM (inactive)
COc1ccc(NC2Oc3cc4c(cc3C(c3cc(OC)c(O)c(OC)c3)C2C)OCO4)cc1 (stereo not given)	4.01 µM (inactive)	10.4 µM (inactive)	5.22 µM (inactive)	4.43 µM (inactive)	4.78 µM (inactive)	5.71 µM (inactive)	–	38.3 µM (inactive)	11.2 µM (inactive)	3.83 µM (inactive)	5.66 µM (inactive)	5.21 µM (inactive)	3.15 µM (inactive)	14.7 µM (inactive)	2.25 µM (inactive)	–	21.4 µM (inactive)	0.202 µM (active)	3.5 µM (inactive)	4.65 µM (inactive)
CSc1nc2c(c(=O)n1C)N=C(c1ccc(Cl)cc1)CC(c1ccccc1)N2 (stereo not given)	19 µM (inactive)	24.4 µM (inactive)	24.6 µM (inactive)	27.2 µM (inactive)	15.7 µM (inactive)	14.2 µM (inactive)	14.1 µM (inactive)	17.6 µM (inactive)	24.1 µM (inactive)	–	17.4 µM (inactive)	33.7 µM (inactive)	22 µM (inactive)	–	13.9 µM (inactive)	29.4 µM (inactive)	36.3 µM (inactive)	29.9 µM (inactive)	49 µM (inactive)	40.8 µM (inactive)
